These are literature values, as cited in patent US20190282591A1, “FINASTERIDE AND SILDENAFIL COMPOSITIONS AND APPLICATIONS” (BLUE GOOSE DRUGS INC., priority 2018, published 2019).

For data set [1] the following is noted: active metabolite accounts for about one-half.
Data set [2] concerns dihydrotestosterone (DHT) levels.
A further data set deals with T1, 5β-reductase (AKR1D1) (Homo sapiens, UniProt P51857).
T1 sequence (P51857 1-326): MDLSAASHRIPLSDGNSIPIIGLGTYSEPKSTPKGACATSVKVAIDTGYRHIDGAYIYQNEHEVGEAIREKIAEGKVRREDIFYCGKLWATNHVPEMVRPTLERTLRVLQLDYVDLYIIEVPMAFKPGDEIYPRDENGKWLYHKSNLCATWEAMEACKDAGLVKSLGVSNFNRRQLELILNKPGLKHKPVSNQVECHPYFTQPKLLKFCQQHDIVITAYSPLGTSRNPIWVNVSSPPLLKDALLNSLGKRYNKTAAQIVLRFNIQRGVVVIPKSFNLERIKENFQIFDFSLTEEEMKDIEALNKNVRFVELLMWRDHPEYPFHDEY
The settings on record: compared with 5α-reductase type I.

The target in data set [3] is T2, 5α-reductase type I isoenzyme (Homo sapiens, UniProt P18405).
T2 sequence (P18405 1-259): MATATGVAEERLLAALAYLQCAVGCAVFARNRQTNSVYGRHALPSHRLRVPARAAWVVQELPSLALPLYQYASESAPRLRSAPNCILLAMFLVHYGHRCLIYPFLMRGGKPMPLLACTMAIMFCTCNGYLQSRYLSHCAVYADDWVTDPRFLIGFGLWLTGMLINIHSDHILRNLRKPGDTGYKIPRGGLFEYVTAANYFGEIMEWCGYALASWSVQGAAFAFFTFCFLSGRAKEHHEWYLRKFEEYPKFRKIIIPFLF
Particulars: 5α-reductase type I vs type II.

As for `CCCc1nn(C)c2c(=O)[nH]c(-c3cc(S(=O)(=O)N4CCN(C)CC4)ccc3OCC)nc12.O=C(O)CC(O)(CC(=O)O)C(=O)O` [Sildenafil citrate, 5-[2-ethoxy-5-(4-methylpiperazin-1-yl)sulfonylphenyl]-1-methyl-3-propyl-4H-pyrazolo[4,3-d]pyrimidin-7-one; 2-hydroxypropane-1,2,3-tricarboxylic acid], the “bioavailability after oral administration” value in data set [1] was 40%.
In the case of `C[C@]12C=CC(=O)N[C@@H]1CC[C@@H]1[C@@H]2CC[C@]2(C)[C@@H](C(=O)Nc3cc(C(F)(F)F)ccc3C(F)(F)F)CC[C@@H]12` [dutasteride], the “reduction of DHT levels in the entire body” value in data set [2] (entire body) was “more than 99%”.
Consider `CC(C)(C)NC(=O)[C@H]1CC[C@H]2[C@@H]3CC[C@H]4NC(=O)C=C[C@]4(C)[C@H]3CC[C@]12C` [finasteride, (5α,17β)-N-(1,1-dimethylethyl)-3-oxo-4-azaandrost-1-ene-17-carboxamide], for which the “affinity for 5β-reductase relative to 5α-reductase” value on 5β-reductase (AKR1D1) was “an order of magnitude less than 5α-reductase type I”. Moreover, in data set [2] (prostate, where type II isoenzyme predominates), the “decrease in prostate DHT levels” value is on record as 85 to 90%. The “decrease in serum DHT levels” value in data set [2] (serum) was 65 to 70%. In addition, the “less inhibitory potency for type I as compared to type II” value in data set [3] was “more than 100 fold”.
